Measurements: ChEMBL document CHEMBL1201862, “PubChem BioAssay data set” (2004)
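These data come from cells grown in 96-well plates and exposed to compound for 48 hours at five concentrations. GI50 marks 50% less growth.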 The source made the active and inactive calls. Cut-off read from the data, not from the text of the source: active = GI50 up to about 1.1 µM and inactive = higher.

Columns and labels:
Test in all cases: inhibition of tumour cell growth, NCI panel, 48 h
[1] = tested on: A498
[2] = tested on: A549
[3] = tested on: CAKI-1
[4] = tested on: CCRF-CEM
[5] = tested on: EKVX
[6] = tested on: HCT-15
[7] = tested on: IGROV-1
[8] = tested on: M14
[9] = tested on: MDA-N
[10] = tested on: NCI-H23
[11] = tested on: OVCAR-3
[12] = tested on: OVCAR-4
[13] = tested on: OVCAR-8
[14] = tested on: RPMI-8226
[15] = tested on: SF-268
[16] = tested on: SF-539
[17] = tested on: SK-MEL-2
[18] = tested on: SK-OV-3
[19] = tested on: SW-620
[20] = tested on: UACC-257

| Structure (SMILES) | GI50 [1] | GI50 [2] | GI50 [3] | GI50 [4] | GI50 [5] | GI50 [6] | GI50 [7] | GI50 [8] | GI50 [9] | GI50 [10] | GI50 [11] | GI50 [12] | GI50 [13] | GI50 [14] | GI50 [15] | GI50 [16] | GI50 [17] | GI50 [18] | GI50 [19] | GI50 [20] |
| --- | --- | --- | --- | --- | --- | --- | --- | --- | --- | --- | --- | --- | --- | --- | --- | --- | --- | --- | --- | --- |
| O=C(Nc1ccc(Cl)cc1Cl)C1C(=O)OC2(CCCCC2)OC1=O | 12.8 µM (inactive) | 4.71 µM (inactive) | 4.78 µM (inactive) | 4.24 µM (inactive) | 11.9 µM (inactive) | 14.6 µM | 5.98 µM (inactive) | 8.77 µM (inactive) | 15.7 µM (inactive) | 4.4 µM (inactive) | 3.18 µM (inactive) | 9.18 µM (inactive) | 5.7 µM (inactive) | 4.16 µM (inactive) | 14.6 µM (inactive) | 9.66 µM (inactive) | 2.93 µM (inactive) | 10.6 µM (inactive) | 5.52 µM (inactive) | 12.1 µM (inactive) |
| O=C(O)C1OC1(c1cccc(Cl)c1)c1ccccc1Cl (centres undefined) | 79.1 µM (inactive) | 35.8 µM (inactive) | 20.5 µM (inactive) | 11.2 µM (inactive) | 25.4 µM (inactive) | 6.76 µM | 34.9 µM (inactive) | 18.8 µM (inactive) | 23.6 µM (inactive) | 20.8 µM (inactive) | 16.1 µM (inactive) | 23.5 µM (inactive) | 32.1 µM (inactive) | 31.1 µM (inactive) | 20.6 µM (inactive) | 25.9 µM (inactive) | 15.7 µM (inactive) | 22.5 µM (inactive) | 20.7 µM (inactive) | 26.6 µM (inactive) |
| COCC1OCCN1C (centres undefined) | > 100 µM (inactive) | > 100 µM (inactive) | > 100 µM (inactive) | > 100 µM (inactive) | > 100 µM (inactive) | > 100 µM | > 100 µM (inactive) | > 100 µM (inactive) | > 100 µM (inactive) | > 100 µM (inactive) | > 100 µM (inactive) | > 100 µM (inactive) | > 100 µM (inactive) | > 100 µM (inactive) | > 100 µM (inactive) | > 100 µM (inactive) | > 100 µM (inactive) | > 100 µM (inactive) | > 100 µM (inactive) | > 100 µM (inactive) |
| O=C(Nc1ccccc1F)c1cc2ccc(O)cc2o/c1=N\c1cccc(F)c1 | 18.2 µM (inactive) | 7.98 µM (inactive) | 19.5 µM (inactive) | 3.31 µM (inactive) | 11.1 µM (inactive) | 10.2 µM | 3.66 µM (inactive) | 15.7 µM (inactive) | 14.6 µM (inactive) | 2.16 µM (inactive) | 11.5 µM (inactive) | 9.86 µM (inactive) | 9.48 µM (inactive) | 3.24 µM (inactive) | 19.2 µM (inactive) | 17.5 µM (inactive) | 14.3 µM (inactive) | 28.1 µM (inactive) | 9.04 µM (inactive) | 19.5 µM (inactive) |
| O=C1CC2(CCC(O)(c3ccc(Cl)cc3)C(C(=O)c3ccc(Cl)cc3)C2)C(=O)c2ccccc2N1 (centres undefined) | 17.3 µM (inactive) | 12.5 µM (inactive) | 9.62 µM (inactive) | 4.61 µM (inactive) | > 23.6 µM (inactive) | > 42.7 µM | > 26.3 µM (inactive) | 18.2 µM (inactive) | 15.2 µM (inactive) | 14.6 µM (inactive) | > 100 µM (inactive) | 0.877 µM (active) | 14.7 µM (inactive) | 18.6 µM (inactive) | 3.1 µM (inactive) | 3.42 µM (inactive) | > 100 µM (inactive) | 12.4 µM (inactive) | 27.4 µM (inactive) | 12.2 µM (inactive) |
| N=C(N)N/N=C/c1cc(Cl)cc(Cl)c1O | 51.1 µM (inactive) | > 100 µM (inactive) | 38.7 µM (inactive) | 43.4 µM (inactive) | 38.9 µM (inactive) | 26.1 µM | > 100 µM (inactive) | 54.5 µM (inactive) | 71.1 µM (inactive) | 56.5 µM (inactive) | 67.3 µM (inactive) | 46.9 µM (inactive) | > 100 µM (inactive) | 57.3 µM (inactive) | 45.9 µM (inactive) | 37.3 µM (inactive) | 34.1 µM (inactive) | > 100 µM (inactive) | 97.5 µM (inactive) | 45.3 µM (inactive) |
| Fc1cc(C2=Nn3c(COc4ccccc4Cl)nnc3S/C2=C\c2ccc(Cl)cc2)c(Cl)cc1Cl | 14.2 µM (inactive) | – | 8.02 µM (inactive) | 9.04 µM (inactive) | 10.1 µM (inactive) | 3.72 µM | 3.8 µM (inactive) | 3.75 µM (inactive) | 2.23 µM (inactive) | 1.96 µM (inactive) | 17.1 µM (inactive) | 9.84 µM (inactive) | 6.03 µM (inactive) | 3.08 µM (inactive) | 2.83 µM (inactive) | 5.6 µM (inactive) | 13.3 µM (inactive) | 19.3 µM (inactive) | 3.54 µM (inactive) | 21.8 µM (inactive) |
